Key:
Type in all cases: functional
[1] = tested on: CCRF-CEM; test: Anticancer activity against human CCRF-CEM cells after 48 hrs by sulforhodamine B assay
[2] = tested on: MOLT-4; test: Anticancer activity against human MOLT4 cells after 48 hrs by sulforhodamine B assay
[3] = Anticancer activity against human […] cells after 48 hrs by sulforhodamine B assay; conditions: for CC50: read-out: LC50 (the source's name)
[4] = tested on: A549; test: Anticancer activity against human A549 cells after 48 hrs by sulforhodamine B assay
[5] = tested on: NCI-H460; test: Anticancer activity against human NCI-H460 cells after 48 hrs by sulforhodamine B assay
[6] = tested on: NCI-H522; test: Anticancer activity against human NCI-H522 cells after 48 hrs by sulforhodamine B assay
[7] = tested on: HCT-116; test: Anticancer activity against human HCT116 cells after 48 hrs by sulforhodamine B assay
[8] = tested on: HCT-15; test: Anticancer activity against human HCT15 cells after 48 hrs by sulforhodamine B assay; conditions: for CC50: read-out: LC50 (the source's name)
[9] = tested on: HT-29; test: Anticancer activity against human HT-29 cells after 48 hrs by sulforhodamine B assay; conditions: for CC50: read-out: LC50 (the source's name)
[10] = tested on: SF-268; test: Anticancer activity against human SF268 cells after 48 hrs by sulforhodamine B assay; conditions: for CC50: read-out: LC50 (the source's name)
[11] = tested on: SNB-19; test: Anticancer activity against human SNB19 cells after 48 hrs by sulforhodamine B assay; conditions: for CC50: read-out: LC50 (the source's name)
[12] = tested on: Malme-3M; test: Anticancer activity against human MALME-3M cells after 48 hrs by sulforhodamine B assay
[13] = tested on: M14; test: Anticancer activity against human M14 cells after 48 hrs by sulforhodamine B assay
[14] = tested on: SK-MEL-28; test: Anticancer activity against human SK-MEL-28 cells after 48 hrs by sulforhodamine B assay
[15] = tested on: UACC-257; test: Anticancer activity against human UACC257 cells after 48 hrs by sulforhodamine B assay
[16] = tested on: UACC-62; test: Anticancer activity against human UACC62 cells after 48 hrs by sulforhodamine B assay
[17] = tested on: IGROV-1; test: Anticancer activity against human IGROV1 cells after 48 hrs by sulforhodamine B assay; conditions: IGROV-1, 48 h
[18] = tested on: OVCAR-3; test: Anticancer activity against human OVCAR-3 cells after 48 hrs by sulforhodamine B assay
[19] = tested on: OVCAR-5; test: Anticancer activity against human OVCAR5 cells after 48 hrs by sulforhodamine B assay; conditions: for CC50: read-out: LC50 (the source's name)
[20] = tested on: 786-0; test: Anticancer activity against human 786-0 cells after 48 hrs by sulforhodamine B assay
[21] = tested on: CAKI-1; test: Anticancer activity against human Caki1 cells after 48 hrs by sulforhodamine B assay
[22] = tested on: RXF 393; test: Anticancer activity against human RXF393 cells after 48 hrs by sulforhodamine B assay
[23] = tested on: SN12C; test: Anticancer activity against human SN12C cells after 48 hrs by sulforhodamine B assay
[24] = tested on: TK-10; test: Anticancer activity against human TK10 cells after 48 hrs by sulforhodamine B assay
[25] = tested on: UO-31; test: Anticancer activity against human UO31 cells after 48 hrs by sulforhodamine B assay
[26] = tested on: PC-3; test: Anticancer activity against human PC3 cells after 48 hrs by sulforhodamine B assay; conditions: for CC50: read-out: LC50 (the source's name)
[27] = tested on: DU-145; test: Anticancer activity against human DU145 cells after 48 hrs by sulforhodamine B assay; conditions: for CC50: read-out: LC50 (the source's name)
[28] = tested on: MDA-MB-231; test: Anticancer activity against human MDA-MB-231 cells after 48 hrs by sulforhodamine B assay; conditions: for CC50: read-out: LC50 (the source's name)
[29] = Anticancer activity against human Hs 578T cells after 48 hrs by sulforhodamine B assay; conditions: for CC50: read-out: LC50 (the source's name)
[30] = tested on: MDA-MB-435; test: Anticancer activity against human MDA-MB-435 cells after 48 hrs by sulforhodamine B assay; conditions: for CC50: read-out: LC50 (the source's name)
[31] = tested on: BT-549; test: Anticancer activity against human BT549 cells after 48 hrs by sulforhodamine B assay; conditions: for CC50: read-out: LC50 (the source's name)

## CCCCCCCCCCCCCCCCCC[n+]1ccn(C)c1.[Cl-]
[1]; Homo sapiens, CCRF-CEM, 48 h
  GI50: 0.127 µM
  LC50: 0.72 µM
[2]
  GI50: 0.189 µM
  LC50: 2.16 µM
[3]; Homo sapiens, RPMI8266, 48 h
  GI50: 0.027 µM
  CC50: 1.21 µM
[4]; Homo sapiens, A549, 48 h
  GI50: 0.639 µM
  LC50 (concentration killing 50% of cells): 10 µM
[5]; Homo sapiens, NCI-H460, 48 h
  GI50: 0.405 µM
  LC50: 3.92 µM
[6]
  GI50: 0.364 µM
[6]; Homo sapiens, NCI-H522, 48 h
  LC50: 6.45 µM
[7]; Homo sapiens, HCT-116, 48 h
  GI50: 0.343 µM
[7]; Homo sapiens, HCT-116, 48 h, read-out: LC50 (the source's name)
  CC50: > 100 µM
[8]
  GI50: 0.461 µM
[8]; Homo sapiens, HCT-15, 48 h
  CC50: 4.11 µM
[9]; Homo sapiens, HT-29, 48 h
  GI50: 0.315 µM
[9]
  CC50: 5.51 µM
[10]; Homo sapiens, SF-268, 48 h
  GI50: 0.978 µM
  CC50: 5.88 µM
[11]; Homo sapiens, SNB-19, 48 h
  GI50: 1.22 µM
[11]
  CC50: > 100 µM
[12]
  GI50: 0.368 µM
[12]; Homo sapiens, Malme-3M, 48 h
  LC50 (concentration killing 50% of cells): 5.83 µM
[13]; Homo sapiens, M14, 48 h
  GI50: 0.33 µM
  LC50 (50% lethal concentration): 6.63 µM
[14]; Homo sapiens, SK-MEL-28, 48 h
  GI50: 0.879 µM
  LC50: 5.75 µM
[15]
  GI50: 0.125 µM
[15]; Homo sapiens, UACC-257, 48 h
  LC50: 6.77 µM
[16]; Homo sapiens, UACC-62, 48 h
  GI50: 0.848 µM
  LC50: 5.07 µM
[17]
  GI50: 0.175 µM
[17]; read-out: LC50 (the source's name)
  CC50: > 100 µM
[18]; Homo sapiens, OVCAR-3, 48 h
  GI50: 0.375 µM
  LC50 (50% lethal concentration): 4.01 µM
[19]; Homo sapiens, OVCAR-5, 48 h
  GI50: 0.819 µM
  CC50: 7.89 µM
[20]; Homo sapiens, 786-0, 48 h
  GI50: 0.669 µM
  LC50 (50% lethal concentration): 6.02 µM
[21]; Homo sapiens, CAKI-1, 48 h
  GI50: 0.429 µM
  LC50: 7.45 µM
[22]; Homo sapiens, RXF 393, 48 h
  GI50: 0.265 µM
  LC50: 4.9 µM
[23]; Homo sapiens, SN12C, 48 h
  GI50: 0.679 µM
  LC50: 4.77 µM
[24]; Homo sapiens, TK-10, 48 h
  GI50: 0.244 µM
  LC50: 2.77 µM
[25]; Homo sapiens, UO-31, 48 h
  GI50: 0.608 µM
  LC50: 5.94 µM
[26]; Homo sapiens, PC-3, 48 h
  GI50: 0.212 µM
  CC50: 2.85 µM
[27]; Homo sapiens, DU-145, 48 h
  GI50: 0.635 µM
  CC50: 4.4 µM
[28]
  GI50: 0.449 µM
[28]; Homo sapiens, MDA-MB-231, 48 h
  CC50: 4.86 µM
[29]; Homo sapiens, Hs-578T, 48 h
  GI50: 0.335 µM
  CC50: 6.31 µM
[30]; Homo sapiens, MDA-MB-435, 48 h
  GI50: 0.684 µM
  CC50: 7.96 µM
[31]
  GI50: 0.557 µM
[31]; Homo sapiens, BT-549, 48 h
  CC50: 5.33 µM

## CCCCCCCCCCCCCCCCCC[n+]1ccn(C)c1.F[P-](F)(F)(F)(F)F
[1]
  GI50: 0.129 µM
  LC50: 0.98 µM
[2]
  GI50: 0.589 µM
  LC50: > 100 µM
[3]
  GI50: 0.017 µM
  CC50: 0.811 µM
[4]
  LC50 (concentration killing 50% of cells): 9.37 µM
[5]
  GI50: 0.636 µM
  LC50: 4.38 µM
[6]
  GI50: 1.16 µM
  LC50: 6.77 µM
[7]
  GI50: 0.411 µM
[8]
  GI50: 1.01 µM
  CC50: 4.66 µM
[9]
  GI50: 0.408 µM
  CC50: > 100 µM
[10]
  GI50: 1.26 µM
  CC50: 6.06 µM
[11]
  GI50: 1.45 µM
  CC50: 7.89 µM
[12]
  GI50: 1.02 µM
  LC50 (concentration killing 50% of cells): 7.69 µM
[13]
  GI50: 0.424 µM
  LC50 (50% lethal concentration): 6.25 µM
[14]
  LC50: 5.16 µM
[15]
  GI50: 1.69 µM
  LC50: 9.66 µM
[16]
  GI50: 1.18 µM
  LC50: 5.2 µM
[18]
  GI50: 0.453 µM
  LC50 (50% lethal concentration): 4.39 µM
[19]
  GI50: 1.08 µM
  CC50: 7.24 µM
[20]
  GI50: 1.25 µM
  LC50 (50% lethal concentration): 8.58 µM
[21]
  GI50: 0.791 µM
  LC50: 8.9 µM
[22]
  GI50: 0.467 µM
  LC50: 5.98 µM
[23]
  GI50: 1.2 µM
  LC50: 5.28 µM
[24]
  GI50: 0.463 µM
  LC50: 4.76 µM
[25]
  GI50: 0.657 µM
  LC50: 5.35 µM
[26]
  GI50: 0.286 µM
  CC50: 3.54 µM
[27]
  GI50: 1.02 µM
  CC50: 4.68 µM
[28]
  GI50: 1.03 µM
  CC50: 5.11 µM
[29]
  GI50: 0.536 µM
  CC50: 6.15 µM
[30]
  GI50: 0.851 µM
  CC50: 6.64 µM
[31]
  GI50: 1.29 µM
  CC50: 6.91 µM
